Patent US20130115618A1, “PHOSPHOLIPID PROFILING AND CANCER” (KATHOLIEKE UNIVERSITEIT LEUVEN, priority 2010, published 2013)

Columns and labels:
Format in all cases: cell-based
LNCaP cells [1] = experiment: Cell death assay (trypan blue dye exclusion)
Source text: At the indicated time after exposure to soraphen and/or other compounds, the adherent and floating cells were collected by trypsinization and centrifugation and both cell populations were combined.

LNCaP cells [2] = experiment: Lipid peroxidation product assay
Procedure: Equal amounts of cells were scraped in ice-cold PBS, kept on ice for 15 min, and then sonicated (10 bursts). After centrifugation at 3,000 g for 10 min, the supernatants were analyzed using a lipid peroxidation assay kit (Oxford Biomedical Research, Oxford, Mich.) that quantifies the amount of malondialdehydes and 4-hydroxyalkenals, which are generated from fatty acid peroxide decomposition.

[3] = test system: CD36-positive cells (COS-7 transfected with pCD36); experiment: CD36-binding assay
Procedure: LNCaP cells were cultured in the presence or absence of soraphen and/or palmitic acid for 72 hr. The cells were exposed to H2O2 (300 μM) for 30 min. Cells were trypsinized and labeled with Cell Tracker Dye Orange CMRA (C34551). The labeled LNCaP cells (1.5×10^5) were subsequently layered over a monolayer of COS-7 cells, which were cultured on glass coverslips and transfected with a CD36-encoding construct (pCD36) or the corresponding empty vector (pEF-BOS) (both kindly provided by R. Thorne, University of Newcastle, Australia). Cells were co-cultured in 1 ml of RPMI medium for 1 hr at 37° C. After extensive washing, the cultures were fixed and imaged. The fluorescence signal of the CellTracker Dye was measured using Adobe Photoshop software (San Jose, Calif.).

LNCaP cells [4] = experiment: Doxorubicin accumulation (fluorescence microscopy and fluorimetry); conditions: soraphen 100 nM 72 hr, doxorubicin 10 μM 30 min
Procedure: To visualize the intracellular doxorubicin accumulation, doxorubicin was added at a final concentration of 10 μM. After 30 min, the cells were analyzed using a fluorescence microscope (515 nm longpass emission filter) and the LIDA software (Leica Microsystems GmbH).
To measure doxorubicin accumulation fluorimetrically, cells were exposed to 10 μM of doxorubicin for 30 min, washed in PBS, lysed in 0.3 M HCl in 50% ethanol (v:v), and centrifuged at 700 g for 5 min. The fluorescence of doxorubicin was measured at an excitation wavelength of 490 nm and an emission wavelength of 580 nm. Where indicated, media were supplemented with palmitic acid.

[5] = test system: fatty acid synthesis in LNCaP cells; experiment: 2-14C-acetate incorporation assay and TLC analysis; conditions: soraphen 24 hours, 2-14C-acetate last 4 hours
Procedure: LNCaP cells were treated with soraphen or vehicle (ethanol) for 24 hours. The last 4 hours, 2-^14C-labeled acetate (57 mCi/mmol; 2 μCi/dish; Amersham International, Aylesbury, UK) was added to the culture medium. Lipids were extracted according to a modified Bligh-Dyer method as previously described (De Schrijver et al., 2003). To analyze the incorporation of 2-^14C-acetate into different lipid classes, TLC analysis was performed and the lipids were exposed to a PhosphorImager screen for quantification (Molecular Dynamics, Sunnyvale, Calif.), as previously described (De Schrijver et al., 2003).

LNCaP cells [6] = experiment: Analysis of intact phospholipid species by ESI-MS/MS; conditions: soraphen 100 nM, 72 hr, versus vehicle
Procedure: To prepare lipid extracts for ESI-MS/MS analysis, the tissue or cells were homogenized in 1.6 ml of 0.1 N HCl:CH3OH 1:1 (v/v). CHCl3 (0.8 ml) and 200 μg/ml of the anti-oxidant 2,6-di-tert-butyl-4-methylphenol (Sigma) were added (Milne et al., 2006). After addition of the lipid standards, the organic fractions were collected by centrifugation at 200 g for 5 min. Samples were evaporated and reconstituted in CH3OH:CHCl3:NH4OH (90:10:1.25, v/v/v) and the lipids were analyzed by electrospray ionization tandem mass spectrometry (ESI-MS/MS) on a hybrid quadrupole linear ion trap mass spectrometer (4000 QTRAP system; Applied Biosystems, Foster City, Calif.) equipped with a robotic nanoflow/ion source (Advion Biosciences). The system was operated in the MRM mode for quantification of individual species. Data were expressed as fold change relative to the control samples (untreated cells or matched normal tissue) and were presented as heatmaps using the Heatmap Builder software (Clifton Watt, Stanford University, USA).

LNCaP cells [7] = experiment: Doxorubicin flip-flop rate (NBD-PE quenching); conditions: soraphen 100 nM 72 hr, doxorubicin 10 μM, similar with verapamil 100 μM
Procedure: To measure the flip-flop rate of doxorubicin, cells were treated with soraphen or vehicle for 72 hr. During the last 24 hr of treatment, 10 μM of NBD-phosphatidylethanolamine (NBD-PE; Invitrogen) was added. Verapamil was added at a concentration of 100 μM 1 hr prior to harvesting the cells by trypsinization. The doxorubicin flip-flop rate across the plasma membrane was measured as the reduction in fluorescence of NBD due to quenching of NBD-PE by doxorubicin (Regev et al., 2005) (See Supplemental Methods for details).

## COc1cccc2c1C(=O)c1c(O)c3c(c(O)c1C2=O)C[C@@](O)(C(=O)CO)C[C@@H]3O[C@H]1C[C@H](N)[C@H](O)[C@H](C)O1 [doxorubicin]
LNCaP cells [1]; standard culture, doxorubicin 4 μM last 24 hr
  cell death: 8%

## CCCCCCCCCCCCCCCC(=O)O [palmitic acid]
LNCaP cells [2]; soraphen 100 nM 72 hr, 200 μM H2O2 last 2 hr, exogenous palmitic acid 75 μM
  effect on soraphen/H2O2-induced increase in lipid peroxidation products: largely reversed these changes
[3]; soraphen 100 nM 72 hr, 300 μM H2O2 30 min, exogenous palmitic acid 75 μM
  effect on soraphen-induced increase of CD36-bound LNCaP cells: counteracted these effects
LNCaP cells [4]; palmitic acid 75 μM
  effect on soraphen-induced doxorubicin accumulation: counteracted the effects of soraphen
LNCaP cells [1]; soraphen 100 nM 72 hr, 300 μM H2O2 last 24 hr, fatty acid supplement 75 μM
  effect on soraphen-sensitized H2O2-induced cell death (rescue): counteracted
LNCaP cells [1]; soraphen 100 nM, doxorubicin 4 μM, palmitic acid 75 μM
  effect on soraphen/doxorubicin-induced cell death: largely rescued the cells from death

## CO[C@H]1CCCC[C@@H](c2ccccc2)OC(=O)[C@@H](C)[C@@]2(O)O[C@H]([C@@H](C)[C@H](O)[C@H]2OC)[C@@H](C)/C=C/[C@H]1OC [soraphen, Soraphen A]
[5]
  inhibition of fatty acid synthesis / de novo lipogenesis by 2-14C-acetate incorporation: Inhibition of fatty acid synthesis, and as such de novo lipogenesis was confirmed
LNCaP cells [6]
  decrease of PC species with one degree of unsaturation: up to four-fold
  effect on PC species with two unsaturations: ambiguous or minor net effect
  increase of PC species with more unsaturations (>three): up to eight-fold
LNCaP cells [2]; soraphen 100 nM, 72 hr
  levels of lipid peroxidation products: significantly increased
[3]; soraphen 100 nM 72 hr followed by 300 μM H2O2 for 30 min
  number of CD36-bound LNCaP cells: substantially increased
LNCaP cells [7]
  increase in the flip-flop rate of doxorubicin: six-fold
LNCaP cells [4]
  intracellular accumulation of doxorubicin: significant increase
LNCaP cells [1]; soraphen 100 nM 72 hr, 300 μM H2O2 last 24 hr
  cell death in response to H2O2: markedly increased
LNCaP cells [1]; soraphen alone 100 nM 72 hr
  cell death: up to 20%
